Assay results taken from paper PMC8330742, “New benzothieno[2,3-c]pyridines as non-steroidal CYP17 inhibitors: design, synthesis, anticancer screening, apoptosis induction, and in silico ADME profile studies” (Journal of Enzyme Inhibition and Medicinal Chemistry, 2021).

How the values were obtained:
[1] = system: CCRF-CEM; experiment: NCI-60 SRB screen; format: cell-based; settings: Homo sapiens, single dose 10^−5 M, Leukaemia, read-out: Growth inhibition (%)
[2] = system: HL-60(TB); experiment: NCI-60 SRB screen; format: cell-based, human; settings: Homo sapiens; single dose 10^−5 M; HL-60(TB), Leukaemia; read-out: Growth inhibition (%)
[3] = system: K-562; experiment: NCI-60 SRB screen; format: cell-based, human; settings: Homo sapiens, K562; single dose 10^−5 M; K-562, Leukaemia; read-out: Growth inhibition (%)
[4] = system: MOLT-4; experiment: NCI-60 SRB screen; format: cell-based; settings: Homo sapiens; single dose 10^−5 M; MOLT-4, Leukaemia; read-out: Growth inhibition (%)
[5] = system: SR; experiment: NCI-60 SRB screen; format: cell-based; settings: Homo sapiens, single dose 10^−5 M, Leukaemia, read-out: Growth inhibition (%)
[6] = system: A549/ATCC; experiment: NCI-60 SRB screen; format: cell-based, human; settings: Homo sapiens, single dose 10^−5 M, Non-small cell lung carcinoma, read-out: Growth inhibition (%)
[7] = system: EKVX; experiment: NCI-60 SRB screen; format: cell-based, human; settings: Homo sapiens, single dose 10^−5 M, Non-small cell lung carcinoma, read-out: Growth inhibition (%)
[8] = system: HOP-62; experiment: NCI-60 SRB screen; format: cell-based, human; settings: Homo sapiens; single dose 10^−5 M; HOP-62, Non-small cell lung carcinoma; read-out: Growth inhibition (%)
[9] = system: HOP-92; experiment: NCI-60 SRB screen; format: cell-based, human; settings: Homo sapiens; single dose 10^−5 M; HOP-92, Non-small cell lung carcinoma; read-out: Growth inhibition (%)
[10] = system: NCI-H226; experiment: NCI-60 SRB screen; format: cell-based, human; settings: Homo sapiens; single dose 10^−5 M; NCI-H226, Non-small cell lung carcinoma; read-out: Growth inhibition (%)
[11] = system: NCI-H23; experiment: NCI-60 SRB screen; format: cell-based, human; settings: Homo sapiens; single dose 10^−5 M; NCI-H23, Non-small cell lung carcinoma; read-out: Growth inhibition (%)
[12] = system: NCI-H322M; experiment: NCI-60 SRB screen; format: cell-based, human; settings: Homo sapiens, single dose 10^−5 M, Non-small cell lung carcinoma, read-out: Growth inhibition (%)
[13] = system: NCI-H460; experiment: NCI-60 SRB screen; format: cell-based, human; settings: Homo sapiens; single dose 10^−5 M; NCI-H460, Non-small cell lung carcinoma; read-out: Growth inhibition (%)
[14] = system: NCI-H522; experiment: NCI-60 SRB screen; format: cell-based, human; settings: Homo sapiens; single dose 10^−5 M; NCI-H522, Non-small cell lung carcinoma; read-out: Growth inhibition (%)
[15] = system: COLO 205; experiment: NCI-60 SRB screen; format: cell-based, human; settings: Homo sapiens; single dose 10^−5 M; COLO 205, Colon cancer; read-out: Growth inhibition (%)
[16] = system: HCT-116; experiment: NCI-60 SRB screen; format: cell-based, human; settings: Homo sapiens; single dose 10^−5 M; HCT-116, Colon cancer; read-out: Growth inhibition (%)
[17] = system: HCT-15; experiment: NCI-60 SRB screen; format: cell-based, human; settings: Homo sapiens; single dose 10^−5 M; HCT-15, Colon cancer; read-out: Growth inhibition (%)
[18] = system: HT-29; experiment: NCI-60 SRB screen; format: cell-based; settings: Homo sapiens; single dose 10^−5 M; HT-29, Colon cancer; read-out: Growth inhibition (%)
[19] = system: KM12; experiment: NCI-60 SRB screen; format: cell-based, human; settings: Homo sapiens; single dose 10^−5 M; KM12, Colon cancer; read-out: Growth inhibition (%)
[20] = system: SW-620; experiment: NCI-60 SRB screen; format: cell-based; settings: Homo sapiens; single dose 10^−5 M; SW-620, Colon cancer; read-out: Growth inhibition (%)
[21] = system: SF-268; experiment: NCI-60 SRB screen; format: cell-based, human; settings: Homo sapiens; single dose 10^−5 M; SF-268, CNS cancer; read-out: Growth inhibition (%)
[22] = system: SF-295; experiment: NCI-60 SRB screen; format: cell-based, human; settings: Homo sapiens; single dose 10^−5 M; SF-295, CNS cancer; read-out: Growth inhibition (%)
[23] = system: MALME-3M; experiment: NCI-60 SRB screen; format: cell-based, human; settings: Homo sapiens, single dose 10^−5 M, Melanoma, read-out: Growth inhibition (%)
[24] = system: M14; experiment: NCI-60 SRB screen; format: cell-based, human; settings: Homo sapiens; single dose 10^−5 M; M14, Melanoma; read-out: Growth inhibition (%)
[25] = system: MDA-MB-435; experiment: NCI-60 SRB screen; format: cell-based; settings: Homo sapiens, MDA-MB-435, read-out: Growth inhibition (%)
[26] = system: SK-MEL-2; experiment: NCI-60 SRB screen; format: cell-based, human; settings: Homo sapiens; single dose 10^−5 M; SK-MEL-2, Melanoma; read-out: Growth inhibition (%)
[27] = system: SK-MEL-28; experiment: NCI-60 SRB screen; format: cell-based; settings: Homo sapiens; single dose 10^−5 M; SK-MEL-28, Melanoma; read-out: Growth inhibition (%)
[28] = system: SK-MEL-5; experiment: NCI-60 SRB screen; format: cell-based, human; settings: Homo sapiens; single dose 10^−5 M; SK-MEL-5, Melanoma; read-out: Growth inhibition (%)
[29] = system: UACC-257; experiment: NCI-60 SRB screen; format: cell-based, human; settings: Homo sapiens; single dose 10^−5 M; UACC-257, Melanoma; read-out: Growth inhibition (%)
[30] = system: UACC-62; experiment: NCI-60 SRB screen; format: cell-based, human; settings: Homo sapiens; single dose 10^−5 M; UACC-62, Melanoma; read-out: Growth inhibition (%)
[31] = system: IGROV1; experiment: NCI-60 SRB screen; format: cell-based, human; settings: Homo sapiens, IGROV-1; single dose 10^−5 M; IGROV1, Ovarian cancer; read-out: Growth inhibition (%)
[32] = system: OVCAR-3; experiment: NCI-60 SRB screen; format: cell-based, human; settings: Homo sapiens; single dose 10^−5 M; OVCAR-3, Ovarian cancer; read-out: Growth inhibition (%)
[33] = system: OVCAR-4; experiment: NCI-60 SRB screen; format: cell-based, human; settings: Homo sapiens; single dose 10^−5 M; OVCAR-4, Ovarian cancer; read-out: Growth inhibition (%)
[34] = system: OVCAR-8; experiment: NCI-60 SRB screen; format: cell-based, human; settings: Homo sapiens; single dose 10^−5 M; OVCAR-8, Ovarian cancer; read-out: Growth inhibition (%)
[35] = system: NCI/ADR-RES; experiment: NCI-60 SRB screen; format: cell-based, human; settings: Homo sapiens, single dose 10^−5 M, Ovarian cancer, read-out: Growth inhibition (%)
[36] = system: SK-OV-3; experiment: NCI-60 SRB screen; format: cell-based, human; settings: Homo sapiens; single dose 10^−5 M; SK-OV-3, Ovarian cancer; read-out: Growth inhibition (%)
[37] = system: 786-0; experiment: NCI-60 SRB screen; format: cell-based; settings: Homo sapiens; single dose 10^−5 M; 786-0, Renal cancer; read-out: Growth inhibition (%)
[38] = system: ACHN; experiment: NCI-60 SRB screen; format: cell-based; settings: Homo sapiens, single dose 10^−5 M, Renal cancer, read-out: Growth inhibition (%)
[39] = system: CAKI-1; experiment: NCI-60 SRB screen; format: cell-based, human; settings: Homo sapiens; single dose 10^−5 M; CAKI-1, Renal cancer; read-out: Growth inhibition (%)
[40] = system: RXF 393; experiment: NCI-60 SRB screen; format: cell-based, human; settings: Homo sapiens; single dose 10^−5 M; RXF 393, Renal cancer; read-out: Growth inhibition (%)
[41] = system: SN12C; experiment: NCI-60 SRB screen; format: cell-based, human; settings: Homo sapiens, SN12C; single dose 10^−5 M; SN 12 C, Renal cancer; read-out: Growth inhibition (%)
[42] = system: TK-10; experiment: NCI-60 SRB screen; format: cell-based, human; settings: Homo sapiens; single dose 10^−5 M; TK-10, Renal cancer; read-out: Growth inhibition (%)
[43] = system: UO-31; experiment: NCI-60 SRB screen; format: cell-based, human; settings: Homo sapiens; single dose 10^−5 M; UO-31, Renal cancer; read-out: Growth inhibition (%)
[44] = system: panel of 60 cancer cell lines; experiment: NCI-60 SRB screen, mean or range over the panel; format: cell-based, human; settings: Homo sapiens; mean over the cell lines; single dose 10^−5 M; read-out: Mean growth inhibition (%)

Work on `CCN1CCN(C2=C(Cl)c3c(sc4c(F)cccc34)C(c3cccc([N+](=O)[O-])c3)N2)CC1` (centres unmarked) [Compound 8a, 4-Chloro-3–(4-ethylpiperzin-1-yl)-8-fluoro-1-(3-nitrophenyl)-1,2-dihydro [1]benzothieno[2,3-c]pyridine] yielded an inhibition at 10 µM [1] of 1.89%, an inhibition at 10 µM [2] of -9.32% and an inhibition at 10 µM [3] of 13.2%. It also gave an inhibition at 10 µM [4] of 5.94%, an inhibition at 10 µM [5] of 23.5% and an inhibition at 10 µM [6] of 1.8%. It also gave an inhibition at 10 µM [7] of 4.5%, an inhibition at 10 µM [8] of 3.76% and an inhibition at 10 µM [9] of 10.7%. The inhibition at 10 µM [10] was 17%, the inhibition at 10 µM [11] was 7.1% and the inhibition at 10 µM [12] was -1.6%. For the same compound, the inhibition at 10 µM [13] was 0.6%, the inhibition at 10 µM [14] was 14.3% and the inhibition at 10 µM [15] was -11.9%. It also gave an inhibition at 10 µM [16] of 15%, an inhibition at 10 µM [17] of 2.5% and an inhibition at 10 µM [18] of 2.3%. It also gave an inhibition at 10 µM [19] of -1.16%, an inhibition at 10 µM [20] of 4.03% and an inhibition at 10 µM [21] of 7.38%. For the same compound, the inhibition at 10 µM [22] was 0.4%, the inhibition at 10 µM [23] was 1.57% and the inhibition at 10 µM [24] was 6.73%. For the same compound, the inhibition at 10 µM [25] was -6.27%, the inhibition at 10 µM [26] was 3.85% and the inhibition at 10 µM [27] was -10.8%. The inhibition at 10 µM [28] was -14.1%, the inhibition at 10 µM [29] was -7.62% and the inhibition at 10 µM [30] was 11.6%. For the same compound, the inhibition at 10 µM [31] was 23.8%, the inhibition at 10 µM [32] was 1.03% and the inhibition at 10 µM [33] was 3.25%. For the same compound, the inhibition at 10 µM [34] was 2.09%, the inhibition at 10 µM [35] was -1.63% and the inhibition at 10 µM [36] was 1.74%. For the same compound, the inhibition at 10 µM [37] was -7.31%, the inhibition at 10 µM [38] was 9.21% and the inhibition at 10 µM [39] was 21.9%. For the same compound, the inhibition at 10 µM [40] was -2.44%, the inhibition at 10 µM [41] was 2.25% and the inhibition at 10 µM [42] was -41.7%. It also gave an inhibition at 10 µM [43] of 35.8% and an inhibition at 10 µM [44] of -0.2%.
